{"source": "PubChem BioAssay AID1963985", "about": "(Molecular Pharmacology Branch, DTP, NCI, 2024)", "system": "252836-082-R-J2-PDC tumor spheroids, viability", "assay": "Anticancer human tumor 252836-082-R-J2-PDC patient-derived head and neck squamous cell carcinoma cell line growth inhibition [PI3K]", "settings": "spheroids with HUVEC and MSC; for IC50: curve of first compound; for viability, T/C: stronger effect = lower value", "how_it_was_run": "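Multi-cell spheroids combine tumor cells with HUVEC and human MSCs, treated with targeted agents alone or with inavolisib, alpelisib, duvelisib or copanlisib. Concentrations fall in half-log steps from at or near clinical Cmax, or from 10 microM where Cmax is unknown; viability read-out.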", "data": [{"compound": "CC(C)NCC(C(=O)N1CCN(c2ncnc3c2C(C)CC3O)CC1)c1ccc(Cl)cc1", "note": "(configuration not stated) + CC(Nc1ccc2c(c1)OCCn1cc(N3C(=O)OCC3C(F)F)nc1-2)C(N)=O;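 note: spheroids exposed to agents for seven days before readout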;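 for viability, T/C: percent of vehicle DMSO control viability so 100% = untreated growth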", "values": [{"measurement": "IC50", "setting": "second compound 0.00316 µM", "result": 710, "unit": "nM"}, {"measurement": "IC50", "setting": "second compound 0.01 µM", "result": 749, "unit": "nM"}, {"measurement": "IC50", "setting": "second compound 0.0316 µM", "result": 631, "unit": "nM"}, {"measurement": "IC50", "setting": "second compound 0.1 µM", "result": 234, "unit": "nM"}, {"measurement": "IC50", "setting": "second compound 0.316 µM", "result": 173, "unit": "nM"}, {"measurement": "IC50", "setting": "second compound 1 µM", "result": "< 31.6", "unit": "nM"}, {"measurement": "viability, T/C", "setting": "second compound 0.00316 µM, first compound 0.0316 µM", "result": 100, "unit": "%"}, {"measurement": "viability, T/C", "setting": "second compound 0.00316 µM, first compound 0.1 µM", "result": 83, "unit": "%"}, {"measurement": "viability, T/C", "setting": "second compound 0.00316 µM, first compound 0.316 µM", "result": 66.9, "unit": "%"}, {"measurement": "viability, T/C", "setting": "second compound 0.00316 µM, first compound 1 µM", "result": 41.4, "unit": "%"}, {"measurement": "viability, T/C", "setting": "second compound 0.00316 µM, first compound 3.16 µM", "result": 29.8, "unit": "%"}, {"measurement": "viability, T/C", "setting": "second compound 0.00316 µM, first compound 10 µM", "result": 18.3, "unit": "%"}, {"measurement": "viability, T/C", "setting": "second compound 0.01 µM, first compound 0.0316 µM", "result": 83.1, "unit": "%"}, {"measurement": "viability, T/C", "setting": "second compound 0.01 µM, first compound 0.1 µM", "result": 88.3, "unit": "%"}, {"measurement": "viability, T/C", "setting": "second compound 0.01 µM, first compound 0.316 µM", "result": 69.6, "unit": "%"}, {"measurement": "viability, T/C", "setting": "second compound 0.01 µM, first compound 1 µM", "result": 42.5, "unit": "%"}, {"measurement": "viability, T/C", "setting": "second compound 0.01 µM, first compound 3.16 µM", "result": 28.5, "unit": "%"}, {"measurement": "viability, T/C", "setting": "second compound 0.01 µM, first compound 10 µM", "result": 20.1, "unit": "%"}, {"measurement": "viability, T/C", "setting": "second compound 0.0316 µM, first compound 0.0316 µM", "result": 87.4, "unit": "%"}, {"measurement": "viability, T/C", "setting": "second compound 0.0316 µM, first compound 0.1 µM", "result": 82.3, "unit": "%"}, {"measurement": "viability, T/C", "setting": "second compound 0.0316 µM, first compound 0.316 µM", "result": 67, "unit": "%"}, {"measurement": "viability, T/C", "setting": "second compound 0.0316 µM, first compound 1 µM", "result": 36.9, "unit": "%"}, {"measurement": "viability, T/C", "setting": "second compound 0.0316 µM, first compound 3.16 µM", "result": 29.3, "unit": "%"}, {"measurement": "viability, T/C", "setting": "second compound 0.0316 µM, first compound 10 µM", "result": 17.9, "unit": "%"}, {"measurement": "viability, T/C", "setting": "second compound 0.1 µM, first compound 0.0316 µM", "result": 74.8, "unit": "%"}, {"measurement": "viability, T/C", "setting": "second compound 0.1 µM, first compound 0.1 µM", "result": 56.4, "unit": "%"}, {"measurement": "viability, T/C", "setting": "second compound 0.1 µM, first compound 0.316 µM", "result": 47.9, "unit": "%"}, {"measurement": "viability, T/C", "setting": "second compound 0.1 µM, first compound 1 µM", "result": 35.8, "unit": "%"}, {"measurement": "viability, T/C", "setting": "second compound 0.1 µM, first compound 3.16 µM", "result": 23.8, "unit": "%"}, {"measurement": "viability, T/C", "setting": "second compound 0.1 µM, first compound 10 µM", "result": 15.7, "unit": "%"}, {"measurement": "viability, T/C", "setting": "second compound 0.316 µM, first compound 0.0316 µM", "result": 54.9, "unit": "%"}, {"measurement": "viability, T/C", "setting": "second compound 0.316 µM, first compound 0.1 µM", "result": 49.6, "unit": "%"}, {"measurement": "viability, T/C", "setting": "second compound 0.316 µM, first compound 0.316 µM", "result": 49.4, "unit": "%"}, {"measurement": "viability, T/C", "setting": "second compound 0.316 µM, first compound 1 µM", "result": 37.3, "unit": "%"}, {"measurement": "viability, T/C", "setting": "second compound 0.316 µM, first compound 3.16 µM", "result": 25.4, "unit": "%"}, {"measurement": "viability, T/C", "setting": "second compound 0.316 µM, first compound 10 µM", "result": 16.6, "unit": "%"}, {"measurement": "viability, T/C", "setting": "second compound 1 µM, first compound 0.0316 µM", "result": 43, "unit": "%"}, {"measurement": "viability, T/C", "setting": "second compound 1 µM, first compound 0.1 µM", "result": 42.2, "unit": "%"}, {"measurement": "viability, T/C", "setting": "second compound 1 µM, first compound 0.316 µM", "result": 37.3, "unit": "%"}, {"measurement": "viability, T/C", "setting": "second compound 1 µM, first compound 1 µM", "result": 29.2, "unit": "%"}, {"measurement": "viability, T/C", "setting": "second compound 1 µM, first compound 3.16 µM", "result": 22.8, "unit": "%"}, {"measurement": "viability, T/C", "setting": "second compound 1 µM, first compound 10 µM", "result": 14.7, "unit": "%"}]}]}
